Data set [1] in a line: Drug excretion in human kidney. Conditions: urine.
Data set [2] can be described thus: Terminal half life in human at 0.1 mg/kg, iv. Conditions: in vivo, read-out: beta t1/2 (converted). It is filed as ADME, organism-based.
The nature of data set [3]: Half life in human. It is filed as ADME, organism-based. Conditions: in vivo.
For data set [4], the species on record is Homo sapiens. Briefly: Unbound concentration in human at 10 mg, tid. Conditions: in vivo.
A short description of data set [5]: Half life in human at 10 mg, tid. Conditions: in vivo.
Data set [6] is described as follows: Inhibition of human calcium channel.
The nature of data set [7]: Terminal half life in human. The format is ADME, organism-based. Conditions: in vivo, read-out: beta t1/2.
The species entered for data set [8] is Homo sapiens. Briefly: Unbound concentration in human at 5 to 10 mg, qd. Conditions: in vivo. It is filed as ADME, organism-based.

This note sets out measurements from ChEMBL document CHEMBL4177677, “Relevance of Half-Life in Drug Design” (J Med Chem, 2018).

In data set [1], `NCCCC(O)(P(=O)(O)O)P(=O)(O)O` [ALENDRONIC ACID] returned a dose excreted of 20 to 80%.
`NS(=O)(=O)N1CCN(C2CN(CC[C@]3(c4ccc(Cl)c(Cl)c4)CCC(=O)N(CC4CC4)C3)C2)CC1`: in data set [2], the half-life was 28 h.
The compound `COc1cc(F)c(C(C)C)cc1-c1ccc(C(F)(F)F)cc1CN1C(=O)O[C@H](c2cc(C(F)(F)F)cc(C(F)(F)F)c2)[C@@H]1C` [ANACETRAPIB] gave a half-life in data set [3] of 60 h.
As a reminder, the IC50 is the point on the concentration scale where inhibition reaches its midpoint. Regarding `COC(=O)C1=C(C)NC(C)=C(C(=O)OC)C1c1ccccc1[N+](=O)[O-]` [NIFEDIPINE], the “Drug uptake(free)” value in data set [4] is 6 nM. The half-life in data set [5] was 2 h. Also, in data set [6], the IC50 is 4 nM.
For `CC(C(=O)O)c1ccc2oc(-c3ccc(Cl)cc3)nc2c1` (stereo not given) [BENOXAPROFEN], the half-life in data set [7] lay within 19 to 26 h.
As for `CCOC(=O)C1=C(COCCN)NC(C)=C(C(=O)OC)C1c1ccccc1Cl` (stereo not given) [AMLODIPINE], the “Drug uptake(free)” value in data set [8] is given as 2 nM. Moreover, in data set [6], the IC50 stood at 2 nM.
Compound `C[C@@H]1CCN(C(=O)CC#N)C[C@@H]1N(C)c1ncnc2[nH]ccc12` [TOFACITINIB] had a half-life in data set [3] of 3 h.
